# Assay results reported in ChEMBL document CHEMBL5724914, “Linking interpersonal differences in gut microbiota composition and drug biotransformation activity” (2024).
# Key:
# [1] = The drug is tested on WLS-086 corresponding to human gut metagenome with ENA study accession number: PRJEB37062 and ENA sample accession number: ERS12561752 for biotransformation under anaerobic condition. The drug concentrations were measured over 9 timepoints collected between 0 and 24 hours of incubation by liquid-chromatography-coupled mass spectrometry (LC–MS); conditions: 2 µM
# [2] = The drug is tested on Z-017 corresponding to mouse gut metagenome with ENA study accession number: PRJEB37062 and ENA sample accession number: ERS12561816 for biotransformation under anaerobic condition. The drug concentrations were measured over 9 timepoints collected between 0 and 24 hours of incubation by liquid-chromatography-coupled mass spectrometry (LC–MS); conditions: 2 µM
# [3] = The drug is tested on Z-028 corresponding to mouse gut metagenome with ENA study accession number: PRJEB37062 and ENA sample accession number: ERS12561827 for biotransformation under anaerobic condition. The drug concentrations were measured over 9 timepoints collected between 0 and 24 hours of incubation by liquid-chromatography-coupled mass spectrometry (LC–MS); conditions: 2 µM
# [4] = The drug is tested on Z-003 corresponding to pig gut metagenome with ENA study accession number: PRJEB37062 and ENA sample accession number: ERS12561803 for biotransformation under anaerobic condition. The drug concentrations were measured over 9 timepoints collected between 0 and 24 hours of incubation by liquid-chromatography-coupled mass spectrometry (LC–MS); conditions: 2 µM
# [5] = The drug is tested on Z-008 corresponding to metagenome with ENA study accession number: PRJEB37062 and ENA sample accession number: ERS12561808 for biotransformation under anaerobic condition. The drug concentrations were measured over 9 timepoints collected between 0 and 24 hours of incubation by liquid-chromatography-coupled mass spectrometry (LC–MS); conditions: 2 µM
# [6] = The drug is tested on Z-002 corresponding to rabbit gut metagenome with ENA study accession number: PRJEB37062 and ENA sample accession number: ERS12561802 for biotransformation under anaerobic condition. The drug concentrations were measured over 9 timepoints collected between 0 and 24 hours of incubation by liquid-chromatography-coupled mass spectrometry (LC–MS); conditions: 2 µM
# [7] = The drug is tested on Z-026 corresponding to metagenome with ENA study accession number: PRJEB37062 and ENA sample accession number: ERS12561825 for biotransformation under anaerobic condition. The drug concentrations were measured over 9 timepoints collected between 0 and 24 hours of incubation by liquid-chromatography-coupled mass spectrometry (LC–MS); conditions: 2 µM
# [8] = human gut metagenome, 24 h, 2 µM
# [9] = human gut metagenome, 24 h, 2 µM; remark: listed apart in the source
# [10] = human gut metagenome, 24 h, 2 µM; remark: listed apart in the source
# [11] = The drug is tested on Z-014 corresponding to rat gut metagenome with ENA study accession number: PRJEB37062 and ENA sample accession number: ERS12561814 for biotransformation under anaerobic condition. The drug concentrations were measured over 9 timepoints collected between 0 and 24 hours of incubation by liquid-chromatography-coupled mass spectrometry (LC–MS); conditions: 2 µM
# [12] = human gut metagenome, 24 h, 2 µM; remark: listed apart in the source
# [13] = human gut metagenome, 24 h, 2 µM; remark: listed apart in the source
# [14] = The drug is tested on Z-019 corresponding to rat gut metagenome with ENA study accession number: PRJEB37062 and ENA sample accession number: ERS12561818 for biotransformation under anaerobic condition. The drug concentrations were measured over 9 timepoints collected between 0 and 24 hours of incubation by liquid-chromatography-coupled mass spectrometry (LC–MS); conditions: 2 µM
# [15] = The drug is tested on Z-018 corresponding to pig gut metagenome with ENA study accession number: PRJEB37062 and ENA sample accession number: ERS12561817 for biotransformation under anaerobic condition. The drug concentrations were measured over 9 timepoints collected between 0 and 24 hours of incubation by liquid-chromatography-coupled mass spectrometry (LC–MS); conditions: 2 µM
# [16] = human gut metagenome, 24 h, 2 µM; remark: listed apart in the source
# [17] = The drug is tested on WLS-006 corresponding to human gut metagenome with ENA study accession number: PRJEB37062 and ENA sample accession number: ERS12561741 for biotransformation under anaerobic condition. The drug concentrations were measured over 9 timepoints collected between 0 and 24 hours of incubation by liquid-chromatography-coupled mass spectrometry (LC–MS); conditions: 2 µM
# [18] = The drug is tested on WLS-220 corresponding to human gut metagenome with ENA study accession number: PRJEB37062 and ENA sample accession number: ERS12561769 for biotransformation under anaerobic condition. The drug concentrations were measured over 9 timepoints collected between 0 and 24 hours of incubation by liquid-chromatography-coupled mass spectrometry (LC–MS); conditions: 2 µM
# [19] = human gut metagenome, 24 h, 2 µM; remark: listed apart in the source
# [20] = human gut metagenome, 24 h, 2 µM; remark: listed apart in the source
# Also: call rule not given here.
smiles,measurement,setting,value
O=c1n(CCCN2CCN(c3cccc(Cl)c3)CC2)nc2ccccn12 [TRAZODONE],Bacterial Biotransformation,[1],Compound metabolized
same,Bacterial Biotransformation,[2],Compound NOT metabolized
same,Bacterial Biotransformation,[3],Compound NOT metabolized
same,Bacterial Biotransformation,[4],Compound metabolized
same,Bacterial Biotransformation,[5],Compound NOT metabolized
same,Bacterial Biotransformation,[6],Compound metabolized
same,Bacterial Biotransformation,[7],Compound NOT metabolized
same,Bacterial Biotransformation,[8],Compound metabolized
same,Bacterial Biotransformation,[9],Compound metabolized
same,Bacterial Biotransformation,[10],Compound NOT metabolized
same,Bacterial Biotransformation,[11],Compound NOT metabolized
same,Bacterial Biotransformation,[12],Compound NOT metabolized
same,Bacterial Biotransformation,[13],Compound NOT metabolized
same,Bacterial Biotransformation,[14],Compound NOT metabolized
same,Bacterial Biotransformation,[15],Compound NOT metabolized
same,Bacterial Biotransformation,[16],Compound metabolized
same,Bacterial Biotransformation,[17],Compound metabolized
same,Bacterial Biotransformation,[18],Compound metabolized
same,Bacterial Biotransformation,[19],Compound metabolized
same,Bacterial Biotransformation,[20],Compound metabolized
OC(CCN1CCCCC1)(c1ccccc1)C1CCCCC1 (stereo not given) [TRIHEXYPHENIDYL],Bacterial Biotransformation,[1],Compound metabolized
same,Bacterial Biotransformation,[2],Compound NOT metabolized
same,Bacterial Biotransformation,[3],Compound NOT metabolized
same,Bacterial Biotransformation,[4],Compound metabolized
same,Bacterial Biotransformation,[5],Compound NOT metabolized
same,Bacterial Biotransformation,[6],Compound metabolized
same,Bacterial Biotransformation,[7],Compound NOT metabolized
same,Bacterial Biotransformation,[8],Compound NOT metabolized
same,Bacterial Biotransformation,[9],Compound metabolized
same,Bacterial Biotransformation,[10],Compound NOT metabolized
same,Bacterial Biotransformation,[11],Compound NOT metabolized
same,Bacterial Biotransformation,[12],Compound NOT metabolized
same,Bacterial Biotransformation,[13],Compound NOT metabolized
same,Bacterial Biotransformation,[14],Compound NOT metabolized
same,Bacterial Biotransformation,[15],Compound metabolized
same,Bacterial Biotransformation,[16],Compound metabolized
same,Bacterial Biotransformation,[17],Compound metabolized
same,Bacterial Biotransformation,[18],Compound NOT metabolized
same,Bacterial Biotransformation,[19],Compound metabolized
same,Bacterial Biotransformation,[20],Compound metabolized
Cc1cn([C@H]2C[C@H](N=[N+]=[N-])[C@@H](CO)O2)c(=O)[nH]c1=O [ZIDOVUDINE],Bacterial Biotransformation,[1],Compound NOT metabolized
same,Bacterial Biotransformation,[2],Compound metabolized
same,Bacterial Biotransformation,[3],Compound metabolized
same,Bacterial Biotransformation,[4],Compound NOT metabolized
same,Bacterial Biotransformation,[5],Compound NOT metabolized
same,Bacterial Biotransformation,[6],Compound metabolized
same,Bacterial Biotransformation,[7],Compound metabolized
same,Bacterial Biotransformation,[8],Compound NOT metabolized
same,Bacterial Biotransformation,[9],Compound NOT metabolized
same,Bacterial Biotransformation,[10],Compound NOT metabolized
same,Bacterial Biotransformation,[11],Compound NOT metabolized
same,Bacterial Biotransformation,[12],Compound NOT metabolized
same,Bacterial Biotransformation,[13],Compound metabolized
same,Bacterial Biotransformation,[14],Compound metabolized
same,Bacterial Biotransformation,[15],Compound NOT metabolized
same,Bacterial Biotransformation,[16],Compound NOT metabolized
same,Bacterial Biotransformation,[17],Compound metabolized
same,Bacterial Biotransformation,[18],Compound NOT metabolized
same,Bacterial Biotransformation,[19],Compound metabolized
same,Bacterial Biotransformation,[20],Compound NOT metabolized
